Consider five compounds from ChEMBL document CHEMBL1147207 (Eur J Med Chem, 2007).

The target in test [1] is T1, Oxytocin receptor (Rattus norvegicus) (UniProt P70536).
T1 sequence (whole entry): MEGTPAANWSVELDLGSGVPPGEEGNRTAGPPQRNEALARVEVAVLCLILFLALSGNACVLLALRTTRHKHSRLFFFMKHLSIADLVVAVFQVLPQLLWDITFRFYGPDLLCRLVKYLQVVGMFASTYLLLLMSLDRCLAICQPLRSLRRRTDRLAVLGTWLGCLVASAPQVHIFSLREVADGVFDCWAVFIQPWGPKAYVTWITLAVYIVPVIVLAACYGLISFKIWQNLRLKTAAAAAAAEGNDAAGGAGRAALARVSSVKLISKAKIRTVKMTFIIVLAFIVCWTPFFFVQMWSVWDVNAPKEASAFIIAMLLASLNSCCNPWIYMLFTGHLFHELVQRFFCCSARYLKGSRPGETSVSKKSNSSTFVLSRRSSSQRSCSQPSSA
Kind of test: Agonist activity in rat uterus by uterotonic assay. It counts as functional, tissue-based.

Test [2] addresses Vasopressin V1a receptor (Rattus norvegicus) (UniProt P30560). The test is described as follows: Antagonist activity in phenoxybenzamine-treated rat by Pressor assay. The following applies: read-out: pA2 (converted).
Test [3] deals with T2, Oxytocin receptor (Homo sapiens, UniProt P30559).
T2 sequence (P30559 whole entry): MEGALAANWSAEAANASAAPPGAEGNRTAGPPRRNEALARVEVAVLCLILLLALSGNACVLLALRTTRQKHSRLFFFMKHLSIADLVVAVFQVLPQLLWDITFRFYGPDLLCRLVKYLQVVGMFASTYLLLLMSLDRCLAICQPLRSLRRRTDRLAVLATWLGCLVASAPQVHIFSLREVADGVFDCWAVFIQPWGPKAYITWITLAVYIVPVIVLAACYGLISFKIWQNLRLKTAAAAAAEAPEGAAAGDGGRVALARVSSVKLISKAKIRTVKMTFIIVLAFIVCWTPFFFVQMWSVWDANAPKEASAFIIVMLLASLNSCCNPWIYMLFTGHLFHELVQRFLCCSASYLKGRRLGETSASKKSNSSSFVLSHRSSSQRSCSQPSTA
The test is described as follows: Displacement of [3H]OT from human OT receptor expressed in HEK cells. It counts as cell-based, HEK293.

In test [4] the target is T3, Oxytocin receptor (Rattus norvegicus, UniProt P70536).
T3 sequence (P70536 whole entry): T1 sequence (whole entry)
The test is described as follows: Antagonist activity in rat uterus by uterotonic assay. It counts as functional, tissue-based. The following applies: read-out: pA2 (converted).

For test [5], the target named is Vasopressin V1a receptor (Rattus norvegicus) (UniProt P30560). Kind of test: Agonist activity in phenoxybenzamine-treated rat up to 0.16 mg/kg by Pressor assay.
Vasopressin V1a receptor (Rattus norvegicus), sequence (P30560 whole entry, looked up): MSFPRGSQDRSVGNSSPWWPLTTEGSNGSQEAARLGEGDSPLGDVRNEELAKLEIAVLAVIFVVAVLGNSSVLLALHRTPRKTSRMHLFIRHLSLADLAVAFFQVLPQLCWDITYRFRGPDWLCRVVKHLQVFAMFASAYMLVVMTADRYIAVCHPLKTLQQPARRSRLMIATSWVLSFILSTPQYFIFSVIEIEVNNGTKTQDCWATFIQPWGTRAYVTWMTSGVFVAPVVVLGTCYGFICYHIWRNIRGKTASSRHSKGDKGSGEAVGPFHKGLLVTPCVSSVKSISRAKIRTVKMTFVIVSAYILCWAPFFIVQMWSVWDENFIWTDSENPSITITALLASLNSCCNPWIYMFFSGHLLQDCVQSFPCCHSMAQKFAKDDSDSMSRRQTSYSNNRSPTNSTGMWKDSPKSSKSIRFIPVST

The structures appear in SMILES notation. pIC50: −log10 of the molar value. Activity calls are given as the source filed them. No cut-off for these calls is given here.

In test [1], `CC[C@H](C)[C@@H]1NC(=O)[C@H](Cc2ccc(O)cc2)NC(=O)[C@@H](N)CSSC[C@@H](C(=O)N2Cc3ccccc3C[C@@H]2C(=O)N[C@@H](CC(C)C)C(=O)NCC(N)=O)NC(=O)[C@H](CC(N)=O)NC(=O)[C@H](CCC(N)=O)NC1=O` displayed an Activity of 0 IU/mg. For the same compound, the Kb in test [2] is above 1 µM; at Oxytocin receptor [4] it was 0.1 µM. In addition, the pIC50 at Oxytocin receptor [3] is 6.14. Moreover, the result in test [5] was inactive.
In the case of `CCOc1ccc(CC2NC(=O)CCSSC[C@@H](C(=O)N3Cc4ccccc4C[C@H]3C(=O)N[C@@H](CC(C)C)C(=O)NCC(N)=O)NC(=O)[C@H](CC(N)=O)NC(=O)[C@H](CCC(N)=O)NC(=O)[C@H]([C@@H](C)CC)NC2=O)cc1` (stereo in doubt), in test [1], the Activity was found to be 0 IU/mg. The Kb is above 1 µM in test [2] and 0.0158 µM at Oxytocin receptor [4]. Also, at Oxytocin receptor [3], the pIC50 is 6.75. For the same compound, the outcome in test [5] was inactive.
As for `CC[C@H](C)[C@@H]1NC(=O)[C@H](Cc2ccc(O)cc2)NC(=O)[C@@H](N)CSSC[C@@H](C(=O)N2Cc3ccccc3C[C@H]2C(=O)N[C@@H](CC(C)C)C(=O)NCC(N)=O)NC(=O)[C@H](CC(N)=O)NC(=O)[C@H](CCC(N)=O)NC1=O`, the Activity in test [1] is 2 IU/mg. For the same compound, the Kb in test [2] is above 1 µM; on Oxytocin receptor [4], 2.51 µM. Also, the pIC50 at Oxytocin receptor [3] is 6.89. The result in test [5] was inactive.
In test [1], `CCOc1ccc(CC2NC(=O)CCSSC[C@@H](C(=O)N3Cc4ccccc4C[C@@H]3C(=O)N[C@@H](CC(C)C)C(=O)NCC(N)=O)NC(=O)[C@H](CC(N)=O)NC(=O)[C@H](CCC(N)=O)NC(=O)[C@H]([C@@H](C)CC)NC2=O)cc1` (stereo in doubt) came in with an Activity of 0 IU/mg. The Kb was above 1 µM in test [2] and 0.00631 µM on Oxytocin receptor [4]. At Oxytocin receptor [3], the pIC50 was 7.29. For the same compound, the result in test [5] was inactive.
`CC[C@H](C)[C@@H]1NC(=O)[C@H](Cc2ccc(O)cc2)NC(=O)CCSSC[C@@H](C(=O)N2Cc3ccccc3C[C@H]2C(=O)N[C@@H](CC(C)C)C(=O)NCC(N)=O)NC(=O)[C@H](CC(N)=O)NC(=O)[C@H](CCC(N)=O)NC1=O` gave an Activity in test [1] of 3.5 IU/mg. Moreover, the Kb is above 1 µM in test [2] and 0.0355 µM on Oxytocin receptor [4]. At Oxytocin receptor [3], this compound gave a pIC50 of 6.99. Further, the outcome in test [5] was inactive.
